In patent US20250154228A1, “HIGH-TRANSDERMAL-ABSORPTION PEPTIDE AND RECOMBINANT COLLAGEN CONSTRUCTED BY MEANS OF REPETITIONS OF PEPTIDE” (XI'AN GIANT BIOGENE TECHNOLOGY CO., LTD, priority 2022, published 2025):
Ends that are not written are not given here.

test: 24 h transdermal penetration through mouse skin in vitro, single-chamber diffusion cell, BCA determination; type: in vitro ADME, Kunming mice; conditions: collagen peptides, 5 mg/ml in 0.9% NaCl, diffusion area 2.0 cm^2, 37.5° C., receiving solution after 24 h, BCA kit
Method: 10 Kunming mice of 20 to 22 g with half male and half […] were used in the experiment. After the mice were killed, the hairs on the abdomen were removed. Then the skin on the hair-removed area was peeled off, stripped of fat and grain, and rinsed repeatedly with distilled water. After being washed, the mouse skins were rinsed with normal saline, then treated with 10% glycerol, and stored at −20° C. for use (used up within 7 days).
Single-chamber diffusion cell: The effective diffusion area of the diffusion cell is 2.0 cm^2, the volume of the receiving cell is 14 ml, the length of the custom-made stirrer is 1.4 cm, and the receiving liquid is 0.9% NaCl solution.
The stored mouse skin was taken out, thawed, washed with normal saline, and sandwiched between the receiving chamber and the supplying chamber, with the medicated side facing the supplying chamber and the skin side facing the receiving chamber. The temperature of the water bath system was adjusted to 37.5° C., and the stirring speed was adjusted to 100 rpm/min. 0.9% NaCl solution pre-warmed at 37° C. was added to the receiving chamber and the air bubbles were exhausted. In order to reduce the interference, the inner surface of the mouse skin was firstly contacted with the receiving solution without medication and all the receiving solution was replaced. Then the 18 collagen peptides synthesized were prepared into 5 mg/ml solutions using 0.9% NaCl respectively, which were injected into the supplying chamber and firmly adhere to the mouse skin respectively. After 24 h, part of the receiving solution was absorbed with a syringe as the sample solution to determine the transdermal amount of collagen peptide.
The BCA kit method was used to determine the polypeptide content in the sample solution. […]

Sequence | 24 h penetration amount [µg]
GAPGAPGSQGAPGLQGMPGER [compound 13] | 4048.04
GDLGAPGPSGARGERGFPGER [compound 11] | 2994.13
GEQGVPGDLGAPGPSGARGER [compound 9] | 3341.78
GERGAAGLPGPKGDRGDAGPK [compound 14] | 3745.15
GERGFPGERGVQGPPGPAGPR [compound 10] | 2992.77
GERGFPGLPGPSGEPGKQGPS [compound 16] | 3034.99
GERGGPGSRGFPGADGVAGPK [compound 6] | 3253.23
GERGPPGPMGPPGLAGPPGES [compound 18] | 3308.22
GERGPPGPQGARGLPGTAGLP [compound 2] | 3697.14
GERGRPGAPGPAGARGNDGAT [compound 4] | 3124.48
GERGVPGPPGAVGPAGKDGEA [compound 8] | 3113.64
GERGVQGPPGPAGPRGANGAP [compound 12] | 3103.23
GKRGARGEPGPTGLPGPPGER [compound 5] | 3023.05
GLPGPSGEPGKQGPSGASGER [compound 17] | 3498.56
GPPGKNGDDGEAGKPGRPGER [compound 1] | 3041.21
GPQGIAGQRGVVGLPGQRGER [compound 15] | 3111.47
GSPGENGAPGQMGPRGLPGER [compound 3] | 3213.66
GVMGFPGPKGAAGEPGKAGER [compound 7] | 3389.09
